Laboratory results: patent US20200017495A1, “NOVEL HETEROCYCLIC COMPOUNDS AND THEIR USE IN PREVENTING OR TREATING BACTERIAL INFECTIONS” (priority 2017, published 2020)

How the values were obtained:
[1] = target: SHV-1 (Klebsiella pneumoniae, UniProt P0AD64); test: β-lactamase inhibitory activity, IC50 (nitrocefin hydrolysis); format: biochemical
Experimental: (§1) Enzymes were cloned in E. coli expression vector, expressed and purified in house using classical procedures. […] After 30 min of pre-incubation at room temperature, 15 μL of NCF (100 μM final) were finally added in each well. […] Enzyme activity was obtained by subtracting the background from the final signal, and was converted to enzyme inhibition using non inhibited wells. IC50 curves were fitted to a classical Langmuir equilibrium model with Hill slope using XLFIT (IDBS).

[2] = target: OXA-58 (Acinetobacter baumannii, UniProt Q2TR58); test: as above; format: biochemical
Experimental: as §1

[3] = target: PAE ampC (Pseudomonas aeruginosa, UniProt P24735); test: as above; format: biochemical, P. aeruginosa
Chain of PAE ampC (P24735 27-397): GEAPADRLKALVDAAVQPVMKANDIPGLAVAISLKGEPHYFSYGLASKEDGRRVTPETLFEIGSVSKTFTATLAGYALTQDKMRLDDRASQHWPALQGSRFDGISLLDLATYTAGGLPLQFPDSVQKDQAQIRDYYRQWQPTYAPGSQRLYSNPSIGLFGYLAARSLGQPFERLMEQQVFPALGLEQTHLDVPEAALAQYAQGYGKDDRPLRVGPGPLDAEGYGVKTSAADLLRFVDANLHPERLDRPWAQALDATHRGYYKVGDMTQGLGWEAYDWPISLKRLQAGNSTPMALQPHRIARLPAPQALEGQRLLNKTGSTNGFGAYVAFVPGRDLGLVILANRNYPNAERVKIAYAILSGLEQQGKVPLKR
Experimental: as §1

[4] = target: OXA-48 (Klebsiella pneumoniae, UniProt Q6XEC0); test: as above; format: biochemical
Chain of OXA-48 (Q6XEC0 23-265 limits assumed): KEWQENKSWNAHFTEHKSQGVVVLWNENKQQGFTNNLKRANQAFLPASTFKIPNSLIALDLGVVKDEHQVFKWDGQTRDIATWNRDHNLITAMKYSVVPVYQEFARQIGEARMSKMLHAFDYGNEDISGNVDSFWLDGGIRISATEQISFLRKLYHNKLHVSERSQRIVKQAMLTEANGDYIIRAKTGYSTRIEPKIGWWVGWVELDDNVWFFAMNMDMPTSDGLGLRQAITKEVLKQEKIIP
Experimental: as §1

[5] = target: KPC-2 (Klebsiella pneumoniae, UniProt Q9F663); test: as above; format: biochemical
Chain of KPC-2 (Q9F663 25-293 limits assumed): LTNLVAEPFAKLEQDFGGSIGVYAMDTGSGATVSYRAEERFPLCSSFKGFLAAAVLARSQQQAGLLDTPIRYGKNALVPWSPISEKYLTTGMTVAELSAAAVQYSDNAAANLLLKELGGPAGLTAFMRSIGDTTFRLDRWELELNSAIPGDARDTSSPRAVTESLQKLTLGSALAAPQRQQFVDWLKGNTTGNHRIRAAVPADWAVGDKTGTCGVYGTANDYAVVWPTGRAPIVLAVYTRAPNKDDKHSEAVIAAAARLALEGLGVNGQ
Experimental: (§2) Method 1: β-Lactamase Inhibitory Activity, Determination of IC50 (Table 1)
as §1

[6] = target: OXA-23 (Acinetobacter baumannii, UniProt Q9L4P2); test: as above; format: biochemical
Chain of OXA-23 (Q9L4P2 18-273): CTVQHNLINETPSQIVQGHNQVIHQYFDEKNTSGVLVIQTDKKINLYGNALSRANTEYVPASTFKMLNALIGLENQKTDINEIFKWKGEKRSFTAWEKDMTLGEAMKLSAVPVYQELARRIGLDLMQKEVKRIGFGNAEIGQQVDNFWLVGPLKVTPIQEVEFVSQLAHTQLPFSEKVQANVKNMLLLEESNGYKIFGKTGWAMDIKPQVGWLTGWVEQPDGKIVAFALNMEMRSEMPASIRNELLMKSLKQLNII
Experimental: as §1

[7] = target: SAU PC1 (Staphylococcus aureus, UniProt P00807); test: as above; format: biochemical, S. aureus
Chain of SAU PC1 (P00807 25-281): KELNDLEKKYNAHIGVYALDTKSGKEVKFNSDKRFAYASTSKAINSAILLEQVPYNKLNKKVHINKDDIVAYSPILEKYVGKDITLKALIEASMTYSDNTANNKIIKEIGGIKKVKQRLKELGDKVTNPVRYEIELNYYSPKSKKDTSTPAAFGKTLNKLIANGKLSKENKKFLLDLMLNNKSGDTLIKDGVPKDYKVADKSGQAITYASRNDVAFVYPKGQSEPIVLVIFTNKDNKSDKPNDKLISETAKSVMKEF
Experimental: as §2, §1

[8] = target: OXA-40 (Acinetobacter baumannii, UniProt Q8RLA6); test: as above; format: biochemical
Chain of OXA-40 (Q8RLA6 entry or part of it): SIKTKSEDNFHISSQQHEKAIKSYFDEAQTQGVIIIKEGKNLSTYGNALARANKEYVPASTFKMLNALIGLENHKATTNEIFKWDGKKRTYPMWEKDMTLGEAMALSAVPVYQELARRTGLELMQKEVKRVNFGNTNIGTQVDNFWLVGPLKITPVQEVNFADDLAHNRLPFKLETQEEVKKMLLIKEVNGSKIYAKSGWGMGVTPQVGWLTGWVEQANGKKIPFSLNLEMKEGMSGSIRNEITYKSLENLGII
Experimental: as §1

[9] = Rat intraduodenal bioavailability determination; format: in vivo, Male Sprague-Dawley (SD) rats; conditions: 10 mg/kg, AF2 titrated in plasma
Experimental: Method 3: Rat Intraduodenal Bioavailability Determination (Table 7) Intravenous (jugular) or intraduodenal catheterized Male Sprague-Dawley (SD) rats (250-270 g) were obtained from Janvier Labs (Le Genest-Saint-Isle, France). All rats were housed in a −temperature (20±2° C.) and −humidity (55%±10%) controlled room with 12h light/dark cycle, and were acclimatized for at least 4 days before experimentation. Water and food were available ad libitum throughout the study. All rats were handled in accordance with the institutional and national guidelines for the care and use of laboratory animals. Rats were allocated to two groups based on the administration route: intravenous or intraduodenal administration (n=3/group). In the intravenous administration study, drugs (10 mg/kg in phosphate buffer 10 mM, pH7.4) were administered under isoflurane anesthesia via the catheter placed in the jugular vein. […] The pharmacokinetic parameters were calculated using XLfit (IDBS) and Excel (Microsoft) software, using standard non-compartmental methods. The intraduodenal bioavailability was calculated by dividing the AUC obtained from the intraduodenal administration by the AUC obtained from the intravenous administration.

[10] = target: OXA-1 (Escherichia coli, UniProt P13661); test: β-lactamase inhibitory activity, IC50 (nitrocefin hydrolysis); format: biochemical
Chain of OXA-1 (P13661 26-276): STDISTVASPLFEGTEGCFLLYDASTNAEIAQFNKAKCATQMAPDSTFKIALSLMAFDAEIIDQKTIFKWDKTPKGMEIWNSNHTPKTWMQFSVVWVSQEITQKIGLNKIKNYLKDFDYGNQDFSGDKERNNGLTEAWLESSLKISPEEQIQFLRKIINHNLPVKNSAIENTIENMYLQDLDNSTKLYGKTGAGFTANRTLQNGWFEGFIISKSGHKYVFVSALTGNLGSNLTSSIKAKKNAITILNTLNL
Experimental: as §1

[11] = target: OXA-11 (Pseudomonas aeruginosa, UniProt Q06778); test: as above; format: biochemical
Chain of OXA-11 (Q06778 21-266): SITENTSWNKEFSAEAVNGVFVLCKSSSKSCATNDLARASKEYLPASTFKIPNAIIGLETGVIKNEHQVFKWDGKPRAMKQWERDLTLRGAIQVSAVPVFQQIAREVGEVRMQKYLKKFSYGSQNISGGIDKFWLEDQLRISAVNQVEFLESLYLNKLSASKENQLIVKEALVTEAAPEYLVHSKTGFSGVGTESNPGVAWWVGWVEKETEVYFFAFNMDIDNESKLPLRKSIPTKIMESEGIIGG
Experimental: as §1

[12] = target: P99 ampC (Enterobacter cloacae, UniProt P05364); test: as above; format: biochemical
Chain of P99 ampC (P05364 21-381): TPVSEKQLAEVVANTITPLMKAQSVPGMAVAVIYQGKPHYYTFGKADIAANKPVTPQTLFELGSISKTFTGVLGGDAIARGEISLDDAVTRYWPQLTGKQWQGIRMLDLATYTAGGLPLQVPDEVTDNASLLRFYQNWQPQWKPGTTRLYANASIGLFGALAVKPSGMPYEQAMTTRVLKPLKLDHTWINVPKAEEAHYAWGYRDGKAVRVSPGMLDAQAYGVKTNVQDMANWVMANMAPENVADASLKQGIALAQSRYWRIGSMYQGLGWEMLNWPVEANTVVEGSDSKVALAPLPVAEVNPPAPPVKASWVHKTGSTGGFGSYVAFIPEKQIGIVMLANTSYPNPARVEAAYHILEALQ
Experimental: as §2, §1

[13] = target: TEM-1 (Escherichia coli, UniProt P62593); test: as above; format: biochemical
Chain of TEM-1 (P62593 24-286 limits assumed): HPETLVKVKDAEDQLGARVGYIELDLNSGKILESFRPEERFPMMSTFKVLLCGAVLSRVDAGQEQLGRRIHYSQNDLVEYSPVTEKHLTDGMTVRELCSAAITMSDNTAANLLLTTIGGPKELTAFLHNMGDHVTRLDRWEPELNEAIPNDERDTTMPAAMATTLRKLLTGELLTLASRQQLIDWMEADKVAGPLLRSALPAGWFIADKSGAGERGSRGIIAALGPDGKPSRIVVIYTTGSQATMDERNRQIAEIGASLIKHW
Experimental: as §1

[14] = target: CTX-M-15 (Escherichia coli, UniProt Q9EXV5); test: as above; format: biochemical
Chain of CTX-M-15 (Q9EXV5 entry or part of it): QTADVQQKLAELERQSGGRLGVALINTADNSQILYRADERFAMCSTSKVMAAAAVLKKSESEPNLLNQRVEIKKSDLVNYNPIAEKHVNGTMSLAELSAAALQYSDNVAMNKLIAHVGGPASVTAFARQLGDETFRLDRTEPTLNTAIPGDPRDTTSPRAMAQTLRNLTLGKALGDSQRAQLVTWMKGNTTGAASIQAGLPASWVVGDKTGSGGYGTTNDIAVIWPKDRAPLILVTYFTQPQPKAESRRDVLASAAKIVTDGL
Experimental: as §2, §1

[15] = target: OXA-15 (Pseudomonas aeruginosa, UniProt Q51574); test: as above; format: biochemical
Chain of OXA-15 (Q51574 22-275): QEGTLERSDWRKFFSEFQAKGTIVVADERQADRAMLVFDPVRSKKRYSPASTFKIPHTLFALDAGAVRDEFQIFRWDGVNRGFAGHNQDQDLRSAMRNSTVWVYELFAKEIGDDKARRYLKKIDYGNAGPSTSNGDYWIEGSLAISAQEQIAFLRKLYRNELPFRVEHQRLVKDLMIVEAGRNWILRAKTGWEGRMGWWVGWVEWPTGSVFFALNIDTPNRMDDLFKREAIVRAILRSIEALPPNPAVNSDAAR
Experimental: as §1

Chain of SHV-1 (P0AD64 22-286): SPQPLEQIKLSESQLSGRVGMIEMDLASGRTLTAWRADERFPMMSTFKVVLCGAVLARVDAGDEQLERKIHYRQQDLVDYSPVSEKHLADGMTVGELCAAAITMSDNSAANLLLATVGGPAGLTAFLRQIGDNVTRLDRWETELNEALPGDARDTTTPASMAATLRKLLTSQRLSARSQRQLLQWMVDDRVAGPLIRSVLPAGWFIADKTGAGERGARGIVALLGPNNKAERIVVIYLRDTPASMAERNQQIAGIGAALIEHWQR
Chain of OXA-58 (Q2TR58 19-280): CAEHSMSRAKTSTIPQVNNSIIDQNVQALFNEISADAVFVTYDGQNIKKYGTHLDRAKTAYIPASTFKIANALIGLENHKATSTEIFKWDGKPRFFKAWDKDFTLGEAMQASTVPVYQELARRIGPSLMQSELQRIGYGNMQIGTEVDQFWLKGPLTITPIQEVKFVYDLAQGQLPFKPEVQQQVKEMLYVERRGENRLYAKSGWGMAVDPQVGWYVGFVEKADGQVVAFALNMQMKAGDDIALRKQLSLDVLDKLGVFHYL

Row | SMILES | IC50 [1] [nM] | IC50 [2] [nM] | IC50 [3] [nM] | IC50 [4] [nM] | IC50 [5] [nM] | IC50 [6] [nM] | IC50 [7] [nM] | IC50 [8] [nM] | AUC 0-∞ ([9]; intravenous) [ng·h/mL] | AUC(0-inf) ([9]; male, Sprague-Dawley, plasma, iv) [ng·h/mL] | IC50 [10] [nM] | IC50 [11] [nM] | IC50 [12] [nM] | IC50 [13] [nM] | IC50 [14] [nM] | IC50 [15] [nM]
1 | O=C1N2CC(c3ncco3)=CC(C2)N1OC(F)(F)C(=O)[O-].[Li+] (stereo not drawn) [AF2] | 12 | 580 | 280 | 2.4 | 69 | 7400 | 220 | 8300 | 10789 | 11000 | 2100 | 84 | 730 | 2.6 | 1.5 | 140
2 | O=C1N2CC(n3cccn3)=CC(C2)N1OC(F)(F)C(=O)[O-].[Li+] (stereo not drawn) [AF3] | 6 | 1000 | 98 | 5.1 | 77 | 9600 | 120 | 8900 |  |  | 1100 | 40 | 270 | 0.81 | 0.66 | 120
